37 compounds from PubChem BioAssay (NCI) can be followed below.

Values joined by “and” are separate entries in the source; they are usually repeats but may differ in a detail not shown here. Identical values can stand only once.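 Tested at 5 concentrations; 48 h exposure; 96-well plates; endpoints linearly interpolated, else capped at highest concentration. At the GI50, growth is halved. TGI marks complete inhibition of growth.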

For the assay, the system named is MDA-MB-468 breast. Nature of the assay: NCI tumour cell line growth inhibition, 48 h.

As to `CCN(CC)CC(C)(C)C(=O)/C=C/c1ccc(Cl)c(Cl)c1`, the GI50 was 1690 nM and the TGI came out at 3420 nM. Consider `Cc1[nH]n(-c2cccc(Cl)c2)c(=O)c1/C=C1\C=Nc2ccc(Br)cc21`, for which the GI50 is 3970 nM and the TGI turned out to be 29200 nM. For `Cc1c(C2Nc3ccccc3C2C)[nH]c2ccccc12` (stereo not drawn), in that order: 10400 nM and 27800 nM. `CC(=O)Oc1ccccc1C(=O)N=C1[Se]CCN1C(=O)c1ccccc1OC(C)=O`: the GI50 was 740 nM and the TGI came out at 2670 nM. As for `CCCCCc1c(C)[nH]c(/C=C2\N=C(c3ccc[nH]3)C=C2CC)c1C`, the GI50 is 21.5 nM and the TGI is 90.4 nM. With `NC(=O)C(=CNc1nc(-c2ccc(Cl)c(Cl)c2)cs1)C(N)=O`, the GI50 is above 100000 nM and the TGI was above 100000 nM.

In the case of `C#CC(=O)Nc1cccc(Nc2nc3c(c(NCc4ccccc4)n2)CCCC3)c1`, the GI50 was 168 nM and the TGI was 573 nM. In the case of `CCc1cccc2c3c(sc12)C(c1ccc(Cl)cc1)C(C#N)=C(/N=C/c1ccc(Cl)cc1)O3` (stereo not drawn), the GI50 is 565 nM and the TGI worked out at 2460 nM. `CN(C)c1ccc2nc3ccc(=O)cc-3sc2c1`: the GI50 is 1490 nM and the TGI stood at 6990 nM. As to `O=C(CN(C1CCCCC1)C1CCCCC1)Nc1ccc(S(=O)(=O)c2ccc(NC(=O)CN(C3CCCCC3)C3CCCCC3)cc2)cc1`, the GI50 is 1040 nM and the TGI came out at 2930 nM.

Consider `Nc1nc(Nc2ccccc2)c2ncn(Cc3cc4c(cc3Br)OCO4)c2n1`, for which the GI50 was below 10 nM and the TGI worked out at 18200 nM. For `Cc1sc2nc(NCCc3c[nH]c4ccc(Cl)cc34)[nH]c(=O)c2c1C`, in that order: 2130 nM and 4680 nM. As to `O=C(Nc1cccc(Cl)c1)c1cc2ccccc2cc1O`, the GI50 is 2200 nM and 1910 nM; the TGI was 10400 nM and 6670 nM. Take `COc1cc2cn3c4ccc(O)cc4[nH]c(=O)c3c2cc1OC`: the GI50 is 20 nM and the TGI turned out to be 56.8 nM. Take `Cc1ccc(N(CSc2ccc(Cl)cc2)CSc2ccc(Cl)cc2)cc1`: the GI50 was 1910 nM and the TGI worked out at 6230 nM. For `N#CC1(C2SCCS2=O)C2=C(C(=O)c3ccccc3C2=O)N2CCCC21` (stereo not drawn), in that order: 467 nM and 1900 nM. For `COc1ccc(CNc2c3ccccc3nc3ccccc23)cc1OC`, in that order: 1580 nM and 4140 nM. Turning to `CC(=O)Oc1ccccc1C(=O)N=C1[Se]CCCN1C(=O)c1ccccc1OC(C)=O`, the GI50 was 3380 nM and the TGI was found to be 10900 nM. Take `CN1CCc2c(Sc3ccc(C(=O)NO)cc3)c3ccccc3n2C1`: the GI50 was 1120 nM and the TGI worked out at 2920 nM. For `Cc1ccc(Nc2nc(N)c(C(=O)c3ccc(C#N)cc3)s2)cc1`, in that order: 229 nM and 663 nM.

Consider `CCN(CC)CCOc1ccc(/C(=C(\C)c2ccc(F)c(OC)c2)c2ccc(Cl)cc2)cc1`, for which the GI50 is 1910 nM and the TGI is 4230 nM. Turning to `Cc1ccc2c(n1)C(=O)C(Cl)=C(Nc1ccc(C(F)(F)F)cc1)C2=O`, the GI50 is 1890 nM and the TGI stood at 4000 nM.

For the compound `O=C(CCCN1CC=C(n2c(=O)[nH]c3ccccc32)CC1)c1ccc(F)cc1`, the GI50 is 18800 nM and the TGI is 59500 nM. As to `O=C(Nc1ccc(Cl)cc1F)c1cc(Br)ccc1O`, the GI50 was 1130 nM and the TGI was 4450 nM.

Turning to `CC(=O)O[C@@H]1C[C@]2(C(C)C)O[C@@]1(C)[C@@H]1CCC(C)=C1[C@@H]2OC(=O)/C=C/c1ccccc1`, the GI50 was 24200 nM and the TGI is above 100000 nM. For the compound `O=C1/C(=C\c2cccn2Cc2ccccc2)c2ccccc2N1c1c(Cl)cccc1Cl`, the GI50 was 118 nM and the TGI was determined as 463 nM. As to `C#C[C@]1(O)CC[C@H]2[C@@H]3CC=C4c5sc(Nc6ccccc6)nc5CC[C@]4(C)[C@H]3CC[C@@]21C`, the GI50 is 1710 nM and the TGI was found to be 4250 nM. For `Nc1nc(Br)nc2c1ncn2C1CC(O)C(CO)O1` (stereo not drawn), in that order: above 100000 nM and above 100000 nM.

Turning to `Cc1n(Cc2ccc3ccccc3c2)cc[n+]1Cc1ccc2ccccc2c1`, the GI50 was 252 nM and the TGI is 819 nM. `c1ccc2c3ccn4cc5c(cc4c-3nc2c1)CCCC5`: the GI50 is 1390 nM and the TGI was 3600 nM. On the same counts, the results for `COC(=O)[C@@H](NC(=O)[C@@H](OC)[C@@H]1Cc2cc3cc(OC4CC(OC5CC(O)C(O)C(C)O5)C(O)C(C)O4)c(C)c(O)c3c(O)c2C(=O)[C@H]1OC1CC(OC2CC(OC3CC(C)(O)C(O)C(C)O3)C(O)C(C)O2)C(O)C(C)O1)C(C)C` (stereo partly drawn) are 131 nM and 2600 nM. Turning to `O=c1[nH]c2cc(Cl)ccc2n1C1CCN(CCCC(c2ccc(F)cc2)c2ccc(F)cc2)CC1`, the GI50 is 1650 nM and the TGI was 3140 nM.

Regarding `Cc1cc(NC(=O)c2ccc(C)c(Nc3nccc(-c4cccnc4)n3)c2)cc(-n2cnc(C)c2)c1`, the GI50 is 1220 nM and the TGI came out at 3270 nM. `O=C(N/N=C\c1cc(Br)ccc1O)c1ccncc1`: the GI50 is 1070 nM and the TGI came out at 5510 nM.

For the compound `CCN1C(=O)N(CC)C2C1NC(=S)N2/N=C/C=C/c1cccs1` (stereo not drawn), the GI50 was 198 nM.

In the case of `Cc1c[n+](Cc2ccc3ccccc3c2)cn1Cc1ccc2ccccc2c1`, the GI50 is 362 nM and the TGI was 1350 nM. As for `CC(=O)Oc1ccc(Nc2c3ccccc3nc3ccccc23)cc1`, the GI50 was 913 nM and the TGI was found to be 3010 nM.
